Data from ChEMBL document CHEMBL2203000, “Discovery of AC710, a Globally Selective Inhibitor of Platelet-Derived Growth Factor Receptor-Family Kinases” (ACS Med Chem Lett, 2012).

What was measured:
[1] = tested on: Rattus norvegicus; assay: (§1) Oral bioavailability in Sprague-Dawley rat plasma at 10 mg/kg by LC-MS/MS analysis; assay type: ADME, organism-based; settings: in vivo
[2] = tested on: Rattus norvegicus; assay: (§2) AUC in Sprague-Dawley rat plasma at 10 mg/kg, po by LC-MS/MS analysis; assay type: ADME, organism-based; parameters: dose 10 mg/kg, route oral; settings: in vivo
[3] = Aqueous solubility of the compound at pH 2 to 7.4; assay type: physicochemical; settings: buffer
[4] = as §1; assay type: ADME, organism-based; settings: Sprague-Dawley, plasma
[5] = as §2; assay type: ADME, organism-based; parameters: dose 10 mg/kg, route oral; settings: Sprague-Dawley, plasma
[6] = Clearance in Sprague-Dawley rat plasma at 1 mg/kg, iv and 10 mg/kg, po by LC-MS/MS analysis; assay type: ADME, organism-based
[7] = tested on: Rattus norvegicus; assay: Toxicity in rat assessed as mortality at 800 mg/kg administered for 7 days; assay type: organism-based; parameters: dose 800 mg/kg; settings: in vivo, 168 h
[8] = Antitumor activity against mouse M-NFS-60 cells xenografted in CD-1 nude mouse assessed as inhibition of tumor growth at 30 mg/kg, po measured after 4 of tumor implantation; assay type: functional; settings: read-out: TGI
[9] = Antitumor activity against mouse M-NFS-60 cells xenografted in CD-1 nude mouse assessed as inhibition of tumor growth at 10 mg/kg, po measured after 4 of tumor implantation; assay type: functional; settings: read-out: TGI
[10] = Antitumor activity against mouse M-NFS-60 cells xenografted in CD-1 nude mouse assessed as inhibition of tumor growth at 3 mg/kg, po measured after 4 of tumor implantation; assay type: functional; settings: read-out: TGI
[11] = tested on: Mus musculus; assay: Toxicity in collagen-induced arthritis mouse assessed as body weight and body condition at 3 to 30 mg/kg for 15 days; assay type: organism-based; parameters: dose 3-30 mg/kg; settings: in vivo, 360 h
[12] = tested on: Mus musculus; assay: Toxicity in human MV4-11 cells xenografted in SCID mouse assessed as change in body weight at 0.3 to 30 mg/kg foe 2 weeks; assay type: organism-based; parameters: dose 0.3-30 mg/kg; settings: in vivo, 336 h
[13] = tested on: Rattus norvegicus; assay: Toxicity in rat at 200 mg/kg administered for 7 days; assay type: organism-based; parameters: dose 200 mg/kg; settings: in vivo, 168 h
[14] = AUC in po dosed CD-1 mouse by LC-MS/MS analysis; assay type: ADME, organism-based; settings: plasma
[15] = tested on: Rattus norvegicus; assay: Toxicity in rat assessed as diarrhea at 800 mg/kg administered for 7 days; assay type: organism-based; parameters: dose 800 mg/kg; settings: in vivo, 168 h
[16] = target: T1, Cytochrome P450 2D6 (Homo sapiens, UniProt P10635); assay: Induction of CYP2D6 at 3 to 30 uM; assay type: ADME
[17] = target: Cytochrome P450 3A4 (Homo sapiens, UniProt P08684); assay: Induction of CYP3A4 at 3 to 30 uM; assay type: ADME
[18] = target: T2, Cytochrome P450 1A2 (Homo sapiens, UniProt P05177); assay: Induction of CYP1A2 at 3 to 30 uM; assay type: ADME
T2 sequence (P05177 whole entry): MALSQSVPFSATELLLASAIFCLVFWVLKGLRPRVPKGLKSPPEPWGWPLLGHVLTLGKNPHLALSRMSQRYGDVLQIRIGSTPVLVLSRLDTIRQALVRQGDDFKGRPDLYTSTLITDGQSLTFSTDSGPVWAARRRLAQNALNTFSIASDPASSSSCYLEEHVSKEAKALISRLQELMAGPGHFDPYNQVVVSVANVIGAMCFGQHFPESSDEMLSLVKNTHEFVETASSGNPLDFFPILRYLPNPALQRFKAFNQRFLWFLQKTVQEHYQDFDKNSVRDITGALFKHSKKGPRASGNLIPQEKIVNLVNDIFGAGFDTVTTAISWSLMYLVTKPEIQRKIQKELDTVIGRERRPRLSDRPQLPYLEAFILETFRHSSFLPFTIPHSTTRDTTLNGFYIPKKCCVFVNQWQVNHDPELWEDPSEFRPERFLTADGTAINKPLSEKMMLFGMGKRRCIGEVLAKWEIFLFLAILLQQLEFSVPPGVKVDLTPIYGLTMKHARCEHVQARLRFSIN

[19] = target: Cytochrome P450 2C19 (Homo sapiens, UniProt P33261); assay: Inhibition of CYP2C19; assay type: ADME
[20] = target: T1, Cytochrome P450 2D6; assay: Inhibition of CYP2D6; assay type: ADME
[21] = target: T2, Cytochrome P450 1A2; assay: Inhibition of CYP1A2; assay type: ADME
[22] = target: Cytochrome P450 2C9 (Homo sapiens, UniProt P11712); assay: Inhibition of CYP2C9; assay type: ADME
[23] = target: T3, Platelet-derived growth factor receptor beta (Homo sapiens, UniProt P09619); assay: Binding affinity to PDGFRbeta expressed in HEK-293 cells; assay type: cell-based, HEK293
Target sequence in this assay (P09619 whole entry): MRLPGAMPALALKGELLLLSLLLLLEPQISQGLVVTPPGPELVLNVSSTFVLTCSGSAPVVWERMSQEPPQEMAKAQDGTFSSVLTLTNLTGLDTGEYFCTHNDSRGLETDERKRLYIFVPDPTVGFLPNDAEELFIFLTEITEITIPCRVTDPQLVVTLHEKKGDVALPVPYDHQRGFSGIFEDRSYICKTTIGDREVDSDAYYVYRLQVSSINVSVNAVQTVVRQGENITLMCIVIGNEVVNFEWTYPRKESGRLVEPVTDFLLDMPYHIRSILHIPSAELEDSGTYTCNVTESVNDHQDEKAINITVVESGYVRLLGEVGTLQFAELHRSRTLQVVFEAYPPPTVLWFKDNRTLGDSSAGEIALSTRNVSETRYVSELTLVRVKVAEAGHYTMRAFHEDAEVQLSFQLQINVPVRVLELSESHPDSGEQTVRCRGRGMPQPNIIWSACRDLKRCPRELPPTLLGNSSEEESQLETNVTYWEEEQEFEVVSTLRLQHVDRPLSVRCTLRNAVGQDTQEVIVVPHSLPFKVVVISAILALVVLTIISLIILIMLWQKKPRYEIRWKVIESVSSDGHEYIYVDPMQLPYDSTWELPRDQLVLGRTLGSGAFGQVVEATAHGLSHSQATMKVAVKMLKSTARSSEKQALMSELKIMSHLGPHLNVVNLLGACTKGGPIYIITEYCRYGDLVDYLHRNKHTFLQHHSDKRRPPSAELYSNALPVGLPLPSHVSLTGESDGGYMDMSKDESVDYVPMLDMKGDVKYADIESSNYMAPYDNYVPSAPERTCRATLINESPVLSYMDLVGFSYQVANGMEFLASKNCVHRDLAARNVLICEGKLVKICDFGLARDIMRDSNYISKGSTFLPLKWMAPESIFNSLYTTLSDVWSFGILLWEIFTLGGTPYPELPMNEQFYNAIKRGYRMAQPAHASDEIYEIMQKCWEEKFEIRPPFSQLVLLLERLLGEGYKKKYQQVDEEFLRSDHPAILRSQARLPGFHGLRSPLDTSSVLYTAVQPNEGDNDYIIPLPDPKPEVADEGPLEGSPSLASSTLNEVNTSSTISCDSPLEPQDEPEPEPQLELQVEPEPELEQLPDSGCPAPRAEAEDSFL

[24] = target: T3, Platelet-derived growth factor receptor beta; assay: Inhibition of PDGFRbeta phosphorylation in human MG63 cells; assay type: cell-based, MG-63
Target sequence in this assay (P09619 whole entry, looked up): as the sequence (P09619 whole entry) above

[25] = target: Platelet-derived growth factor receptor alpha (Homo sapiens, UniProt P16234); assay: Binding affinity to PDGFRalpha expressed in HEK-293 cells; assay type: cell-based, HEK293
[26] = target: T4, Mast/stem cell growth factor receptor Kit (Homo sapiens, UniProt P10721); assay: Binding affinity to KIT expressed in HEK-293 cells; assay type: cell-based, HEK293
[27] = target: T4, Mast/stem cell growth factor receptor Kit; assay: Inhibition of KIT phosphorylation in human H526 cells; assay type: cell-based
[28] = target: T5, Receptor-type tyrosine-protein kinase FLT3 (Homo sapiens, UniProt P36888); assay: Inhibition of FLT3 phosphorylation in human MV4-11 cells; assay type: cell-based
T5 sequence (P36888 whole entry): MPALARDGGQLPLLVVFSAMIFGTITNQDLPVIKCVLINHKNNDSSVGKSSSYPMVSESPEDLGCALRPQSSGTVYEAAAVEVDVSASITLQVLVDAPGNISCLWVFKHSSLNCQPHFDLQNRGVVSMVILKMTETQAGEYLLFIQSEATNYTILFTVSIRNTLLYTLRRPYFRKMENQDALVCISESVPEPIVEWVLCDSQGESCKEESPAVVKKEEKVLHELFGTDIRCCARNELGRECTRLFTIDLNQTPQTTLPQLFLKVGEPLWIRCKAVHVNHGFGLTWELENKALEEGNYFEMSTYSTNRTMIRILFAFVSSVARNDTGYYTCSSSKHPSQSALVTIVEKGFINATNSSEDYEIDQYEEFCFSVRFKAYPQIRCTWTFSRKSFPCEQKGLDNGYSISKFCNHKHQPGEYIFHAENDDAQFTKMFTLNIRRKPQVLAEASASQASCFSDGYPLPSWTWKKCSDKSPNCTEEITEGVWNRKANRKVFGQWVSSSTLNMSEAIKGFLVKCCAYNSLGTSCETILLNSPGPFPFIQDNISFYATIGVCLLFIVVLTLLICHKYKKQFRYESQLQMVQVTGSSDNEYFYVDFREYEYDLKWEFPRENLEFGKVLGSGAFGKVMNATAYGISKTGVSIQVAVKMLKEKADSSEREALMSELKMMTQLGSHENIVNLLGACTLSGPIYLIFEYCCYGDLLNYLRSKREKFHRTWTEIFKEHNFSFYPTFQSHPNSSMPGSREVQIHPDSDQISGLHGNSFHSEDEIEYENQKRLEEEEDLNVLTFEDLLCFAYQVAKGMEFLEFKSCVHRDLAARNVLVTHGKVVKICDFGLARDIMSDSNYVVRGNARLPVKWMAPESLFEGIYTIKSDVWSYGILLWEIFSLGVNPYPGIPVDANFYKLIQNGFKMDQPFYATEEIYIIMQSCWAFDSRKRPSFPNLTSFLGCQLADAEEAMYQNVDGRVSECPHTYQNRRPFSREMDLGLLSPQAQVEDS

[29] = target: T6, Macrophage colony-stimulating factor 1 receptor (Homo sapiens, UniProt P07333); assay: Inhibition of M-CSF-induced […] -fussed CSF1R phosphorylation expressed in HEK293 cells after 2 hrs by sandwich ELISA; assay type: cell-based
[30] = target: T6, Macrophage colony-stimulating factor 1 receptor; assay: Binding affinity to CSF1R expressed in HEK-293 cells after 1 hr; assay type: cell-based, HEK293
[31] = target: T5, Receptor-type tyrosine-protein kinase FLT3; assay: Binding affinity to FLT3 expressed in HEK-293 cells after 1 hr; assay type: cell-based, HEK293

T4 sequence (P10721 whole entry): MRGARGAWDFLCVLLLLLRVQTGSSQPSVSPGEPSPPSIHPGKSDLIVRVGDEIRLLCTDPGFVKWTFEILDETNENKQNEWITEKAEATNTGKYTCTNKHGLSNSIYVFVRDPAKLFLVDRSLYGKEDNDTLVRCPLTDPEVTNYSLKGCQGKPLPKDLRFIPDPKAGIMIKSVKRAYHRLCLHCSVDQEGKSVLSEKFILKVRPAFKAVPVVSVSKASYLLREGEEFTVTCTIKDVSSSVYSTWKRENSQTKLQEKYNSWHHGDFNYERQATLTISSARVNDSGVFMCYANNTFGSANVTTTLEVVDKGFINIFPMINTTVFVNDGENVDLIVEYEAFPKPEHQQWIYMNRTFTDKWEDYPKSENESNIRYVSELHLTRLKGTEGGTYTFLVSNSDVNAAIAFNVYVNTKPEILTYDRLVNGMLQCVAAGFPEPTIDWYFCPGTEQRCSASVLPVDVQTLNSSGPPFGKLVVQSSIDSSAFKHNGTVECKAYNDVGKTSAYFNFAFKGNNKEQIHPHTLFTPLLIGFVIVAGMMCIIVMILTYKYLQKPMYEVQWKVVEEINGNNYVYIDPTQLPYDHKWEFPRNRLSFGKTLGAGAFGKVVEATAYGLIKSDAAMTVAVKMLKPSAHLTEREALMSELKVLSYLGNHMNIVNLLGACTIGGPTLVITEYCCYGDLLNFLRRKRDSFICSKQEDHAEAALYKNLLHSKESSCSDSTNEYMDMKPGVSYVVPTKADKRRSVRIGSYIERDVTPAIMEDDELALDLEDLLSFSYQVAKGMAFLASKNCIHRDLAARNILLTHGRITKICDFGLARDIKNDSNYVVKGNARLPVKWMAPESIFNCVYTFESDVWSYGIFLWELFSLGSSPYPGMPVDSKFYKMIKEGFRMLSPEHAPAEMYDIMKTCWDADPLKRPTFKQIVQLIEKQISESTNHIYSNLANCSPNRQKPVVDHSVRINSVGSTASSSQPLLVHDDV
T1 sequence (P10635 whole entry): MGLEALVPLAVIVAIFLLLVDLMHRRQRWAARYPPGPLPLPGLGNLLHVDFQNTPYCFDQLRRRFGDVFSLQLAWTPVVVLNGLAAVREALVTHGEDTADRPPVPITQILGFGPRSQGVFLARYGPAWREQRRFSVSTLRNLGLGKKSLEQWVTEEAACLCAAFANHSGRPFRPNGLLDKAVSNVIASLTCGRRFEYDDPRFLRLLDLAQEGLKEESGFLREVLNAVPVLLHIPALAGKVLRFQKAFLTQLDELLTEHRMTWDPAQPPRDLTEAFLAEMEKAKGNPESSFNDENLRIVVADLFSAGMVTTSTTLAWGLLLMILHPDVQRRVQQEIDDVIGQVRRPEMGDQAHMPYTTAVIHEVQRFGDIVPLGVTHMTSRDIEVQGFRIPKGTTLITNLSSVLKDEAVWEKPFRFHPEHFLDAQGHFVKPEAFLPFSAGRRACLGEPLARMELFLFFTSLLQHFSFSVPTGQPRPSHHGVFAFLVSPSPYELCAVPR
T6 sequence (P07333 whole entry): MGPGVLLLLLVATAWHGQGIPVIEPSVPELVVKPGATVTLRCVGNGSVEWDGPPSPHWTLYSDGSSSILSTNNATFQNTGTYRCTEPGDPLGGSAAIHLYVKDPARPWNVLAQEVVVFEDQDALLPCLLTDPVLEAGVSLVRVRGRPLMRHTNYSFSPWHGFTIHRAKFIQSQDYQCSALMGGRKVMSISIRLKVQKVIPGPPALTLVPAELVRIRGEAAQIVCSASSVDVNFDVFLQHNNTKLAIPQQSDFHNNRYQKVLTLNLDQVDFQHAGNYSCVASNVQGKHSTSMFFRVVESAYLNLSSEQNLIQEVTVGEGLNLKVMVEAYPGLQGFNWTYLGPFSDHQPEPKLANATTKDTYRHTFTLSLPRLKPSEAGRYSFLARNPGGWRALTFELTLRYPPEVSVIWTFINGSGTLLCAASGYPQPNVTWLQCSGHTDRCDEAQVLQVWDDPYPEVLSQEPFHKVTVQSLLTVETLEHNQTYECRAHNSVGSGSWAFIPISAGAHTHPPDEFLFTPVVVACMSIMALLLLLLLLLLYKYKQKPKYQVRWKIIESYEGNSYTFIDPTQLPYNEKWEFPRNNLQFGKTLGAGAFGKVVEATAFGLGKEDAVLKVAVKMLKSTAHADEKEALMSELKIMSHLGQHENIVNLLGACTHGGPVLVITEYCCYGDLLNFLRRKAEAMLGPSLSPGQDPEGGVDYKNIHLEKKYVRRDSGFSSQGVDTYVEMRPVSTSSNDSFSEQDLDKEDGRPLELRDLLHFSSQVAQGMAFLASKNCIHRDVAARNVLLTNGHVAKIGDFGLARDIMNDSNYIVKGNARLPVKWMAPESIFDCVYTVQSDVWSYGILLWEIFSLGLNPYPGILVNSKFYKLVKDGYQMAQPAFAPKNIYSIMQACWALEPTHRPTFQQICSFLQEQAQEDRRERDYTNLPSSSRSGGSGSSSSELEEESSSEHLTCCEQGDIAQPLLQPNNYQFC
Cytochrome P450 2C9, sequence (P11712 whole entry): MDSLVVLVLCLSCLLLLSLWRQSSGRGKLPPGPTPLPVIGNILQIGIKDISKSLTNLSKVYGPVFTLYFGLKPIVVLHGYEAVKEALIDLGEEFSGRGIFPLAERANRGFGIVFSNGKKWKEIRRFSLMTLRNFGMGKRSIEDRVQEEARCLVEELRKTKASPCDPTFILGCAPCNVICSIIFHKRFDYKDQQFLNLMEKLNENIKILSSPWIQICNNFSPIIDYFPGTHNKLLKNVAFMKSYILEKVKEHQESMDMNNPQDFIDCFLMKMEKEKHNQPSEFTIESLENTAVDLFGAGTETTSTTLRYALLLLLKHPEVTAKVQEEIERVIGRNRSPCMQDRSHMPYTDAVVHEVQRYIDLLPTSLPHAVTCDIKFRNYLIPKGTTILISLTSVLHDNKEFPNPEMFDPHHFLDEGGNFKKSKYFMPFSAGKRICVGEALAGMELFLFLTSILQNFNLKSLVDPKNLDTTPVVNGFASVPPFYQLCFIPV
Cytochrome P450 3A4, sequence (P08684 whole entry): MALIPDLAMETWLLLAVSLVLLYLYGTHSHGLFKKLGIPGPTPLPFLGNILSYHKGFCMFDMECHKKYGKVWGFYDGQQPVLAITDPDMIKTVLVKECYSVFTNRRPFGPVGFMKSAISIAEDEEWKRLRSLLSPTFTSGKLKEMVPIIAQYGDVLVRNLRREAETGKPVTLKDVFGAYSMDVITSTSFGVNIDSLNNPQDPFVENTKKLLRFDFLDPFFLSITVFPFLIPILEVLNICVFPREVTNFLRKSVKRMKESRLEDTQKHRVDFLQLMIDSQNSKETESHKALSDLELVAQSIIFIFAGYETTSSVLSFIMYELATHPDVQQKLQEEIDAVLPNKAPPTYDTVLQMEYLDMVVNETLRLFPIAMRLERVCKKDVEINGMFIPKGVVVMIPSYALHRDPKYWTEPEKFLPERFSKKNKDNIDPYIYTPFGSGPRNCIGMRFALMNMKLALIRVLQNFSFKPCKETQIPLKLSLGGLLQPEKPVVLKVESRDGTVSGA

## CC(C)(C)c1cc(NC(=O)Nc2ccc(NC(=O)c3ccc(OC4CCNCC4)cn3)cc2)no1
[1]
  F: 1%
[2]
  AUC: 1.6 µM·h

## CC(C)(C)c1cc(NC(=O)Nc2ccc(NC(=O)c3cc4ccccc4cn3)cc2)no1
[3]
  solubility: < 5 µg/mL
[4]
  bioavailability: 9%
[5]
  AUC: 0.8 µM·h
[6]
  clearance: 47 mL/min/kg

## CCN1CCC(Cc2ccc(C(=O)Nc3ccc(NC(=O)Nc4cc(C(C)(C)C)on4)cc3)nc2)CC1
[4]
  bioavailability: 12%
[5]
  AUC: 1.4 µM·h
[6]
  clearance: 24 mL/min/kg

## CCN1C(C)(C)CC(Oc2ccc(C(=O)Nc3ccc(NC(=O)Nc4cc(C(C)(C)C)on4)cc3)nc2)CC1(C)C
[7]
  Activity: Non-toxic
[8]
  inhibition in vivo at 30 mg/kg: 79%
[9]
  inhibition in vivo at 10 mg/kg: 54%
[10]
  inhibition in vivo at 3 mg/kg: 29%
[11]
  Activity: Non-toxic
[12]
  Activity: Non-toxic
[13]
  Activity: Non-toxic
[14]
  AUC: 56.4 µM·h
[15]
  Activity: Toxic
[16]
  Activity: Not Active
[17]
  Activity: Not Active
[18]
  Activity: Not Active
[19]
  IC50: > 40000 nM
[20]
  IC50: > 40000 nM
[21]
  IC50: > 40000 nM
[22]
  IC50: > 40000 nM
[23]
  Kd: 1 nM
[24]
  IC50: 7.7 nM
[25]
  Kd: 1.3 nM
[26]
  Kd: 1 nM
[27]
  IC50: 1.2 nM
[28]
  IC50: 2 nM
[29]
  IC50: 10.5 nM
[4]
  bioavailability: 44%
[5]
  AUC: 10 µM·h
[6]
  clearance: 14 mL/min/kg
[30]
  Kd: 1.57 nM
[31]
  Kd: 0.5 nM
